Several values for one entry are separate records, joined by “and”; a condition that tells them apart may be missing. Identical values can stand only once.
Experiments:
[1] = biological target: T1, SARS-CoV PLpro (Severe acute respiratory syndrome coronavirus, UniProt P0C6U8); assay: biochemical; type: biochemical
[2] = biological target: T1, SARS-CoV PLpro; type: biochemical
[3] = biological target: T1, SARS-CoV PLpro; type: biochemical; remark: listed apart in the source
[4] = biological target: T1, SARS-CoV PLpro; assay: biochemical; type: biochemical; settings: for Ki: Kis
[5] = biological target: T1, SARS-CoV PLpro; assay: biochemical; type: biochemical; settings: for remaining activity at 200 µM: read-out: residual activity of PLpro
[6] = biological target: cathepsin B (Homo sapiens, UniProt P07858); type: biochemical
[7] = biological target: T2, cathepsin K (Homo sapiens, UniProt P43235); type: biochemical
T2 sequence (P43235 115-329): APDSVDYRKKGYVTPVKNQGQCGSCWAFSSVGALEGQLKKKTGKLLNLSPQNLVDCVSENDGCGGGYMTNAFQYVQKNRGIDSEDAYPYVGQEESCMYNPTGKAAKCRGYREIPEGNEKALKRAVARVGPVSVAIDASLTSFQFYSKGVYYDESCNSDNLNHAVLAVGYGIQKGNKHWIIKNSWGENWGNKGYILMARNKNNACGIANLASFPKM

[8] = biological target: cathepsin L (Homo sapiens, UniProt P07711); type: biochemical
[9] = biological target: cathepsin S (Homo sapiens, UniProt P25774); type: biochemical
[10] = biological target: T3, papain (Carica papaya, UniProt P00784); type: biochemical
T3 sequence (P00784 134-345): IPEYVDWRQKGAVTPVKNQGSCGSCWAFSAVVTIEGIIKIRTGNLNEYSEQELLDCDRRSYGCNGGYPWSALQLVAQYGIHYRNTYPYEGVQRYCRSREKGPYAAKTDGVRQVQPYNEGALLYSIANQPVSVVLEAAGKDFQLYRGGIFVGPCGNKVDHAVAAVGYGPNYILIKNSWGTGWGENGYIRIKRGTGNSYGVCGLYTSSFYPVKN

[11] = biological target: SARS-CoV 3CLpro (Severe acute respiratory syndrome coronavirus, UniProt P0C6U8); assay: biochemical; settings: read-out: residual activity of 3CLpro

Sequence of cathepsin S (P25774 115-331): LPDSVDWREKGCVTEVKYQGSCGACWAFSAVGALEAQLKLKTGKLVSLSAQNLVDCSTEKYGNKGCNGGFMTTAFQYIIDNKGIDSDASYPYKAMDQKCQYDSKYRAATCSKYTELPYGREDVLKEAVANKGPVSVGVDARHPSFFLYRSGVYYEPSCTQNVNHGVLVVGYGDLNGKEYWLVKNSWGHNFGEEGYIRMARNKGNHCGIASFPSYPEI
Sequence of cathepsin L (P07711 114-333, species assumed): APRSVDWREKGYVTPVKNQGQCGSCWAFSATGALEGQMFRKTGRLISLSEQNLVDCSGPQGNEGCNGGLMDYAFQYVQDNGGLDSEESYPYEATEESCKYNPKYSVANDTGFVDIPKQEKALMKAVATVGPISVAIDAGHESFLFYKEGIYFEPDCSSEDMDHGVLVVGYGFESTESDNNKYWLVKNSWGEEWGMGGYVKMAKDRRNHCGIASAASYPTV

Row | SMILES | IC50 [1] [µM] | inhibition of the deubiquitinating activity of PLpro [2] | enzymatic activity after gel filtration of the inhibited enzyme (reversibility) [3] | inhibition pattern [4] | kcat [4] [s⁻¹] | Ki [4] | binding mechanism [5] | kmax [5] | kmax of inactivation [5] [ms^−1] | remaining activity at 200 µM [5] [%] | inhibition of cathepsin B [6] | inhibition of cathepsin K [7] | inhibition of cathepsin L [8] | inhibition of cathepsin S [9] | inhibition of papain [10] | remaining activity at 200 µM [11] [%] | inhibitory activity against PLpro [1]
1 | Sc1ncnc2nc[nH]c12 [compound 1, 6-Mercaptopurine] | 21.6 ± 1.8 | effectively inhibited | restored | competitive | 0.13 ± 0.01 | 19 µM and 19.2 µM | slow-binding inhibitors | 1.2 ± 0.1 10^−4 s^−1 | 0.12 | < 5 | not effective inhibitors | not effective inhibitors | not effective inhibitors | not effective inhibitors | not effective inhibitors | – | –
2 | Nc1nc2nc[nH]c2c(=S)[nH]1 [compound 2, 6-Thioguanine] | 5 ± 1.7 | effectively inhibited | restored | competitive | 0.14 ± 0.02 | 13 ± 2.8 µM | slow-binding inhibitors | 9.2 ± 0.9 10^−4 s^−1 | 0.92 | < 5 | not effective inhibitors | not effective inhibitors | not effective inhibitors | not effective inhibitors | not effective inhibitors | 25 | –
3 | O=c1[nH]cnc2nc[nH]c12 [compound 3, Hypoxanthine] | – | – | – | – | – | – | – | – | – | – | – | – | – | – | – | – | devoid of inhibitory activity
4 | CSc1ncnc2nc[nH]c12 [compound 4, 6-Methyl-mercaptopurine] | – | – | – | – | – | – | – | – | – | – | – | – | – | – | – | – | devoid of inhibitory activity
5 | CCN1C(=O)C=CC1=O [compound 6, N-ethylmaleimide] | 4.4 ± 1 | – | – | – | – | – | – | – | – | – | – | – | – | – | – | – | –
